Where two headings read alike, the source gives them in different places.
Tests used:
[1] = biological target: T1, human RORγ (Homo sapiens, UniProt P51449); test: Luciferase reporter gene assay of inhibitory effect against RORγ transcriptional activity (GAL4-hRORγ plasmid in CHO cells); format: cell-based
T1 construct: human, NM_005060.3 and from Ser253 to Lys518; expressed in transfected cells; host or cells: CHO cells (transient co-transfection with pG5-Luc reporter)
T1 sequence (P51449 253-518): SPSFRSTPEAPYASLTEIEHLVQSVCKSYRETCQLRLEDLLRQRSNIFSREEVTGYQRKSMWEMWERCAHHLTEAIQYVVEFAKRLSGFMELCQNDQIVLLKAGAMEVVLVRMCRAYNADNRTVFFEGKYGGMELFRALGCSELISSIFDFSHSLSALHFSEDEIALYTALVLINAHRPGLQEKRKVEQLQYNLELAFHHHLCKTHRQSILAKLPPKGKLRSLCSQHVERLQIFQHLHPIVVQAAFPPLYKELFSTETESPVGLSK

[2] = biological target: T2, mouse RORγ (Mus musculus, UniProt P51450); test: Luciferase reporter gene assay of inhibitory effect against RORγ transcriptional activity (GAL4-mRORγ plasmid in CHO cells); format: cell-based
T2 construct: mouse, NM_011281.2 and from Ile251 to Lys516; expressed in transfected cells; host or cells: CHO cells (transient co-transfection with pG5-Luc reporter)
T2 sequence (P51450 251-516): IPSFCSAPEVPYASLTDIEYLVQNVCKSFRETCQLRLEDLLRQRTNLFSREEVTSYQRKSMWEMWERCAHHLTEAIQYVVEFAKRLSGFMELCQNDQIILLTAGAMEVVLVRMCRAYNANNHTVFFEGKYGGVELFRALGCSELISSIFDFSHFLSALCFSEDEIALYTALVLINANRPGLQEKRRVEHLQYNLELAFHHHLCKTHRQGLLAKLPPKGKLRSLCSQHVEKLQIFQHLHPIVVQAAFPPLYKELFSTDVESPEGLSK
Summary of the method: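 CHO cells transiently co-transfected with GAL4-mouse RORγ LBD (Ile251–Lys516) and GAL4-dependent luciferase reporter; eight compound concentrations, 0.1% DMSO, 2 days at 37 °C. Luminescence as %-of-vehicle control; EC50 by curve fit, cytotoxic concentrations excluded.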

Compound	EC50 ([1]; read-out: LUC EC50 (μM) hRORg) [µM]	EC50 ([2]; read-out: LUC EC50 (μM) mRORg) [µM]	EC50 ([1]; read-out: LUC EC50 hRORg) [µM]	EC50 ([2]; read-out: LUC EC50 mRORg) [µM]
Cc1c(Cl)cccc1NC(=O)CCc1nnc(CNC(=O)C(C)C)n1C1CC1 [Example F-221]	> 3	> 3		
Cc1ncccc1NC(=O)CCc1nnc(CCC(C)C)n1C1CC1 [Example F-91]	> 3	> 3		
CC(=O)N1CC[C@H](c2nnc(CCCC(C)(C)C)n2C2CC2)[C@@H](C(=O)Nc2ccc(C)cc2C)C1 (racemic) [Example F-435]	< 3	< 3		
Cc1ccc(NC(=O)C[C@@H](CCO)c2nnc(CCCC(C)(C)C)n2C2CC2)c(C)c1 [Example F-326]	> 3	> 3		
Cc1ccc(NC(=O)CC(CC(C)C)c2nnc(CCCC(C)(C)C)n2C2CC2)c(C)c1 (racemic) [Example F-438]	< 3	< 3		
Cc1ccc(NC(=O)CCc2nnc(C(O)CCC(C)(C)C)n2C2CC2)c(C)c1 (racemic) [Example F-367]	> 3	< 3		
Cc1ccc(NC(=O)CCc2nnc(CCC3(C)CCCCC3)n2C2CC2)c(C)c1 [Example F-269]	< 3	< 3		
Cc1ccc(NC(=O)CC(CC(N)=O)c2nnc(CCCC(C)C)n2C2CC2)c(C)c1 (racemic) [Example F-253]	> 3	> 3		
Cc1ccc(NC(=O)C[C@H](NC(C)C)c2nnc([C@H]3C[C@@H](CC(C)C)C3)n2C2CC2)c(C)c1 [Example F-536]			< 3	< 3
CCCC(CCC)NC(=O)CCc1nnc(C2Cc3ccccc3C2)n1CC [Example F-28]	> 3	> 3		
CC(=O)N1C[C@H](C(=O)Nc2ccc(C)cc2C)[C@@H](c2nnc(CCC(C)(C)C)n2C2CC2)C1 (racemic) [Example F-223]	< 3	< 3		
C=C1C[C@H](C(=O)Nc2ccc(C)cc2C)[C@@H](c2nnc([C@H]3C[C@@H](CC(C)C)C3)n2C2CC2)C1 (racemic) [Example F-517]			< 3	< 3
CC(=O)N1C[C@@H](C(=O)Nc2ccc(C)cc2C)[C@H](c2nnc(CCCC(C)C)n2C2CC2)C1 [Example F-316]	> 3	> 3		
CCC(CC)C[C@H]1C[C@@H](c2nnc(CCC(=O)Nc3ccc(C)cc3C)n2C2CC2)C1 [Example F-496]			< 3	< 3
Cc1ccc(NC(=O)C[C@@H](C[C@H](O)CO)c2nnc(CCCC(C)C)n2C2CC2)c(C)c1 [Example F-342]	> 3	> 3		
CCn1c(CCC(=O)NCc2ccccc2)nnc1C1Cc2ccccc2C1 [Example F-22]	> 3	> 3		
Cc1ccc(NC(=O)C[C@H](CCC(=O)O)c2onc(-c3cc(C(F)(F)C(C)(C)C)on3)c2C2CC2)c(Cl)c1 [Example E-52, Sodium (S)-5-(2-chloro-4-methyl-phenylcarbamoyl)-4-[4-cyclopropyl-5′-(1,1-difluoro-2,2-dimethylpropyl)-[3,3′]biisoxazolyl-5′-yl]pentanoate]	< 3	< 3		
Cc1ccc(NC(=O)[C@H]2CN(C)CC[C@@H]2c2nnc(CCCC(C)(C)C)n2C2CC2)c(C)c1 (racemic) [Example F-394]	< 3	< 3		
COc1ccc(CNC(=O)CCc2nnc(CCC(C)C)n2C2CC2)c(C)c1 [Example F-108]	> 3	> 3		
CC(C)(C)C[C@H]1C[C@@H](c2onc([C@@H](CCC(=O)O)CC(=O)NCC3CCOCC3)c2C2CC2)C1 [Example F-736]			> 3	> 3
Cc1cc(C)c(NC(=O)C[C@H](CCO)c2nnc([C@H]3C[C@@H](CC(C)C)C3)n2C2CC2)c(F)c1 [Example F-548]			< 3	< 3
Cc1ccc(NC(=O)CC(CCCN)c2nnc(CCCC(C)C)n2C2CC2)c(C)c1 (racemic) [Example F-282]	> 3	> 3		
Cc1ccc(NC(=O)C[C@H](CCC(=O)O)c2noc(-c3cc(C4CC(CC(C)(C)C)C4)on3)c2C2CC2)c(Cl)c1 (stereo partly shown) [Example E-17]	< 3	< 3		
Cc1ccc(NC(=O)C[C@H](CCC(=O)O)c2noc(-c3csc(CC(C)C)n3)c2C2CC2)c(Cl)c1 [Example E-36]	> 3	< 3		
CC(=O)N1C[C@H](C(=O)Nc2ccc(C)cc2C)[C@@H](c2nnc([C@H]3C[C@H](OC(C)C)C3)n2C2CC2)C1 [Example F-334]	< 3	< 3		

Compound	EC50 ([1]; read-out: LUC EC50 (μM) hRORg) [µM]	EC50 ([2]; read-out: LUC EC50 (μM) mRORg) [µM]	EC50 ([1]; read-out: LUC EC50 hRORg) [µM]	EC50 ([2]; read-out: LUC EC50 mRORg) [µM]
Cc1ccc(NC(=O)C[C@H](CCC(=O)O)c2noc(-c3noc(CC(C)C)c3C)c2C2CC2)c(Cl)c1 [Example E-29]	< 3	< 3		
COc1cc(C)ccc1CNC(=O)[C@H]1CN(C(C)=O)C[C@@H]1c1nnc(CCC2CCCCC2)n1C1CC1 (racemic) [Example F-173]	< 3	< 3		
CC(C)C[C@H]1C[C@@H](c2nnc([C@@H](CCO)CC(=O)Nc3ccc(C(F)(F)F)cc3C(F)(F)F)n2C2CC2)C1 [Example F-524]			< 3	< 3
Cc1ccc(NC(=O)[C@H]2CC(C)(O)C[C@@H]2c2nnc([C@H]3C[C@@H](CC(C)C)C3)n2C2CC2)c(C)c1 (single isomer, unassigned) [Example F-565]			< 3	< 3
Cc1ccc(NC(=O)C[C@H](OC(C)C)c2nnc([C@H]3C[C@@H](CC(C)C)C3)n2C2CC2)c(C)c1 [Example F-558]			< 3	< 3
Cc1ccc(NC(=O)[C@H]2CCCN(C(=O)CO)[C@@H]2c2nnc(CCCC(C)(C)C)n2C2CC2)c(C)c1 [Example F-308]	< 3	< 3		
Cc1cc(O)ccc1CNC(=O)CCc1nnc(CCC(C)C)n1C1CC1 [Example F-114]	> 3	> 3		
COc1ccc(F)cc1CNC(=O)CCc1nnc(CCC(C)C)n1C1CC1 [Example F-208]	> 3	> 3		
Cc1ccc(NC(=O)C[C@H](CCC(=O)NS(C)(=O)=O)c2noc([C@H]3C[C@@H](CC(C)C)C3)c2C2CC2)c(C)c1 [Example F-636]			< 3	< 3
COc1cccc(NC(=O)[C@H]2CN(C(C)=O)C[C@@H]2c2nnc(CCCC(C)(C)C)n2C2CC2)c1C (racemic) [Example F-332]	< 3	< 3		
C=CCCCCc1onc(CCC(=O)Nc2cccc(C=C)c2)c1C1CC1 [Example F-738]			> 3	> 3
CC(C)CCc1nnc(CCC(=O)Nc2cccc(Cl)c2F)n1C1CC1 [Example F-100]	> 3	> 3		
Cc1ccc(NC(=O)C[C@H](CN2CC(=O)NC2=O)c2nnc([C@H]3C[C@@H](CC(C)C)C3)n2C2CC2)c(C)c1 [Example F-479]	< 3	< 3		
Cc1cc(Cl)ccc1NC(=O)C[C@H](CCO)c1nnc(-c2cc(CC(C)C)on2)n1C1CC1 [Example F-660]			< 3	< 3
Cc1ccc(NC(=O)C[C@H](CCC(=O)O)c2noc3c2C(C)CCC3CCC(C)C)c(Cl)c1 (single isomer, unassigned) [Example F-690]			> 3	< 3
Cc1ccc(NC(=O)CCc2nnc(-c3ccc(O)cc3)n2C2CC2)c(C)c1 [Example F-442]	> 3	> 3		
CC(=O)N1C[C@H](C(=O)Nc2ccc(C)cc2C)[C@@H](c2nnc(CCC3CC3(C)C)n2C2CC2)C1 (single isomer, unassigned) [Example F-328]	< 3	< 3		
Cc1ccc(NC(=O)C[C@H](CCCC(=O)O)c2noc(-c3cc(CCC(C)C)on3)c2C2CC2)c(Cl)c1 [Example E-21]	< 3	< 3		
Cc1c(Cl)cccc1NC(=O)CC(CC(=O)O)c1nnc(CCCC(C)C)n1C1CC1 (racemic) [Example F-213]	> 3	> 3		
Cc1ccc(NC(=O)CCc2nnc(C3CC4(CCCC4)C3)n2C2CC2)c(C)c1 [Example F-420]	< 3	< 3		
Cc1cccc(NC(=O)CCc2nnc(CCC(C)C)n2C2CC2)c1 [Example F-65]	> 3	> 3		
CC(=O)N1C[C@@H](C(=O)Nc2ccc(C)cc2C)[C@H](c2nnc([C@H]3C[C@H](OC(C)C)C3)n2C2CC2)C1 [Example F-335]	> 3	> 3		
CCn1c(CC(C)C(=O)Nc2cccc3ccccc23)nnc1C1Cc2ccccc2C1 (racemic) [Example F-32]	< 3	< 3		
Cc1ccc(NC(=O)CCc2nnc(CCCC(C)(C)C)n2C2CC2)c(C)c1 [Example F-305]	< 3	< 3		
CC(C)(C)Cc1cc(-c2noc([C@@H](CCC(=O)O)CC(=O)Nc3ccc(Cl)cc3Cl)c2C2CC2)no1 [Example E-74]	< 3	< 3		
